# Active and inactive are the calls of the source.
# Experiments:
# [1] = target: DNA damage-inducible transcript 3 protein (Mus musculus, UniProt P35639); format: functional, Cricetulus griseus
# [2] = target: T1, Runt-related transcription factor 1/Core-binding factor subunit beta (Homo sapiens, UniProt Q01196+Q13951); test: disruptors of Runt domain/CBFb-SMMHC interaction – biochemical, FRET, Cerulean-Runt, Venus-CBFb-SMMHC, uHTS, […] (AID 1434); format: protein assay
# [3] = target: T1, Runt-related transcription factor 1/Core-binding factor subunit beta; test: Runt domain/CBFb-SMMHC interaction disruptors – biochemical, TR-FRET (AID 1438); format: protein assay
# [4] = target: Induced myeloid leukemia cell differentiation protein Mcl-1 (Homo sapiens, UniProt Q07820); format: functional
# Coagulation factor XII = Coagulation factor XII (Homo sapiens, UniProt P00748); format: functional;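 note: activated factor XIIa alpha cleaving a fluorogenic AMC peptide substrate; inhibitor potency from loss of enzyme activity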
# Chain of Coagulation factor XII (P00748 20-372 limits assumed): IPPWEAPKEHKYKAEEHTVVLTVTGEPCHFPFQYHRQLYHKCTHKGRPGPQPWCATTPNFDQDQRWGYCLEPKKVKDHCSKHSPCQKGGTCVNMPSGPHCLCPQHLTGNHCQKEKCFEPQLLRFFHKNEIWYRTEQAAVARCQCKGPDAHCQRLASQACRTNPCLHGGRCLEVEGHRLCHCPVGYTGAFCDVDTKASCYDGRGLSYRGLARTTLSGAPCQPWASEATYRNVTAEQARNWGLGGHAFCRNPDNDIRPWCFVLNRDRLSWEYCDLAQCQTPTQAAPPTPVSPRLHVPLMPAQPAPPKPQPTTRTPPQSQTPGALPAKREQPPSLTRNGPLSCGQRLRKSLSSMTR
# Chain of Coagulation factor XII (P00748 373-615 limits assumed): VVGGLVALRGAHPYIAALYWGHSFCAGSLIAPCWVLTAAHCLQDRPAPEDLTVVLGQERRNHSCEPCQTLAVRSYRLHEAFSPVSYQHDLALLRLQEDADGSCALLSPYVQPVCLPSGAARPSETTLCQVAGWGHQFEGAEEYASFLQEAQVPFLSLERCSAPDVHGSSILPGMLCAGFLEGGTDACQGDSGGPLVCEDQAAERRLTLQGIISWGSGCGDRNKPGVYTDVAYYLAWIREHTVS
# [5] = target: T2, Heat shock factor protein 1 (Mus musculus, UniProt P38532); test: decrease of HSF1-responsive luciferase luminescence – cell-based, NIH3T3, dose retest, confirmation (AID 2382); format: functional;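 note: NIH3T3 fibroblasts with HSF1-driven luciferase reporter stressed by proteasome inhibitor MG132; luminescence from HSF1-driven luciferase expression after 8 hours of MG132 stress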
# T2 sequence (P38532 whole entry): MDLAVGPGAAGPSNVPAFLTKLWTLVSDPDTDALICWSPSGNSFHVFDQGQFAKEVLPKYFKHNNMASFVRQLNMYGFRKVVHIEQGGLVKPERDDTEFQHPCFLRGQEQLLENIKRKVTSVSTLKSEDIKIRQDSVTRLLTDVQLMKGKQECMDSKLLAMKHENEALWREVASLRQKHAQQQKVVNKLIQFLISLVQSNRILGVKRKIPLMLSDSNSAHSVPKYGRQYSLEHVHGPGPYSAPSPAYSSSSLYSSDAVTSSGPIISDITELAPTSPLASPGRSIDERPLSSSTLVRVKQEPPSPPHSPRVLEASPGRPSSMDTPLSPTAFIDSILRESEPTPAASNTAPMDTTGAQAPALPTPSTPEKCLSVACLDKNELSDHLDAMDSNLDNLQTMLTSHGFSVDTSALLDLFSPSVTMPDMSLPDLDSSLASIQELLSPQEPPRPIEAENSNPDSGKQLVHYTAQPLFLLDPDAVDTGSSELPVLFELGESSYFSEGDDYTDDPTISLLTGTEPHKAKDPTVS
# [6] = THP-1 cell cytotoxicity, dose response, cytotoxicity control for non-replicating M. tuberculosis project (AID 489025); format: functional
# [7] = HepG2 cell cytotoxicity, dose response, cytotoxicity control for non-replicating M. tuberculosis project (AID 489018); format: functional; settings: Mycobacterium tuberculosis
# [8] = Vero E6 cell cytotoxicity, dose response, cytotoxicity control for non-replicating M. tuberculosis project, secondary assay (AID 492998); format: functional, VeroE6; settings: Vero C1008
# cells = format: functional
# [9] = target: T3, DNA repair protein RAD52 homolog (Homo sapiens, UniProt P43351); format: functional, biochemical
# T3 sequence (P43351 whole entry): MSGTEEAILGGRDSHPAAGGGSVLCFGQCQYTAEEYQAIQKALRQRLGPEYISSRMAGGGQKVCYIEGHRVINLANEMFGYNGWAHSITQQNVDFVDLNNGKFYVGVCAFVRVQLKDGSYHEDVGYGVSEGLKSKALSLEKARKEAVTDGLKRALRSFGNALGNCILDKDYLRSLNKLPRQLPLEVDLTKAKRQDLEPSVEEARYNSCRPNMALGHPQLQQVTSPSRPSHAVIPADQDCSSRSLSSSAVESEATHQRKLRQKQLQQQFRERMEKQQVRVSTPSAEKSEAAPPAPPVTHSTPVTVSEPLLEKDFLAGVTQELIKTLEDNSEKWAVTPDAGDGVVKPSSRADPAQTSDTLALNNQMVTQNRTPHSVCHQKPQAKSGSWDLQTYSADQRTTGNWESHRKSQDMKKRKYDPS
# [10] = Luminescence Cell-Based Dose Response HTS to Identify Inhibitors of Luciferase Translation or Activity in H4-C Neuroglioblastoma Cells. [Related pubchem assays: 1813 (Primary HTS), 1827 (Project Summary)]; format: functional
# [11] = Luminescence Cell-Based Dose Response HTS to Identify Activators of Luciferase Translation or Activity in H4-C Neuroglioblastoma Cells. [Related pubchem assays: 1829 (Project Summary), 1814 (Primary HTS)]; format: functional
# [12] = luciferase reporter signal suppression in cells – H4 neuroglioma cells, luminescence, dose response (AID 1990); format: functional, cell-based
# [13] = Luminescence Cell-Based Dose Retest to Confirm Activators of 5'UTR Stem-Loop Driven Alpha-Synuclein mRNA Translation in H4 Neuroglioblastoma Cells. [Related pubchem assays (depositor defined):AID1813, AID1829]; format: functional
# [14] = Luminescence Cell-Based Dose Response HTS to Identify Activators of 5'UTR Stem-Loop Driven Prion Protein mRNA Translation in H4-C Neuroglioblastoma Cells. [Related pubchem assays: 1829 (Project Summary), 1814 (Primary HTS)]; format: functional
# [15] = Luminescence Cell-Based Dose HTS Response to Identify Inhibitors of 5'UTR Stem-Loop Driven Prion Protein mRNA Translation in H4-C Neuroglioblastoma Cells. [Related pubchem assays (depositor defined):AID1814, AID1827]; format: functional
# [16] = Luminescence Cell-Based Dose Response HTS to Identify Inhibitors of 5'UTR Stem-Loop Driven Prion Protein mRNA Translation in H4 Neuroglioblastoma Cells. [Related pubchem assays: 1827 (Project Summary), 1813 (Primary HTS)]; format: functional
# [17] = alpha-synuclein stem-loop luciferase translation blockers – H4 neuroglioma cells, luminescence, confirmation (AID 1988); format: functional, cell-based
# [18] = Luminescence Cell-Based Dose Confirmation HTS to Identify Inhibitors of 5'UTR Stem-Loop Driven Alpha-Synuclein mRNA Translation in H4 Neuroglioblastoma Cells. [Related pubchem assays: 1827 (Project Summary), 1813 (Primary HTS)]; format: functional
# [19] = target: T4, Peroxisome proliferator-activated receptor gamma (Homo sapiens, UniProt P37231); test: competitive ligand displacement at PPARg – biochemical, TR-FRET, LanthaScreen, PPARg partial agonist project, dose response (AID 504446)
# T4 sequence (P37231 whole entry): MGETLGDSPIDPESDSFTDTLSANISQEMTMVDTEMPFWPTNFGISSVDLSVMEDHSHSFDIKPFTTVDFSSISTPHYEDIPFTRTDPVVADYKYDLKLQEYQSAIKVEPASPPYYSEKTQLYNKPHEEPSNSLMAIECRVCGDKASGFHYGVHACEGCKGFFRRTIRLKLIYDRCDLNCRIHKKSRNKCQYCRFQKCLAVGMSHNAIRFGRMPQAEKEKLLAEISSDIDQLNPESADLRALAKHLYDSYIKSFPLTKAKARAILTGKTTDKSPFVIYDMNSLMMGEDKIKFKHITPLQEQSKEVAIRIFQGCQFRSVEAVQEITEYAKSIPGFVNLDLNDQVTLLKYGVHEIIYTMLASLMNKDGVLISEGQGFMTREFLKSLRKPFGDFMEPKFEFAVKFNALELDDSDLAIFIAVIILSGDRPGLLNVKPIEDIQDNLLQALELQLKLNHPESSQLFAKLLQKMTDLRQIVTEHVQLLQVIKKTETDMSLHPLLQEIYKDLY
# [20] = target: T4, Peroxisome proliferator-activated receptor gamma; test: competitive ligand displacement at PPARg – biochemical, fluorescence polarization, PolarScreen, PPARg partial agonist project, dose response (AID 504453)
# [21] = target: T4, Peroxisome proliferator-activated receptor gamma; test: PPARg transcriptional activation, reporter cells – cell-based, luminescence, assay provider, dose response (AID 504447); format: functional
# [22] = target: Voltage-dependent T-type calcium channel subunit alpha-1H (Homo sapiens, UniProt O95180); test: human CACNA1H calcium influx blockade – cell-based, synthetic library set 2, HEK293 HH8, Fluo-4, SAR follow-up (AID 493023); format: functional
# Chain of Voltage-dependent T-type calcium channel subunit alpha-1H (O95180 whole entry): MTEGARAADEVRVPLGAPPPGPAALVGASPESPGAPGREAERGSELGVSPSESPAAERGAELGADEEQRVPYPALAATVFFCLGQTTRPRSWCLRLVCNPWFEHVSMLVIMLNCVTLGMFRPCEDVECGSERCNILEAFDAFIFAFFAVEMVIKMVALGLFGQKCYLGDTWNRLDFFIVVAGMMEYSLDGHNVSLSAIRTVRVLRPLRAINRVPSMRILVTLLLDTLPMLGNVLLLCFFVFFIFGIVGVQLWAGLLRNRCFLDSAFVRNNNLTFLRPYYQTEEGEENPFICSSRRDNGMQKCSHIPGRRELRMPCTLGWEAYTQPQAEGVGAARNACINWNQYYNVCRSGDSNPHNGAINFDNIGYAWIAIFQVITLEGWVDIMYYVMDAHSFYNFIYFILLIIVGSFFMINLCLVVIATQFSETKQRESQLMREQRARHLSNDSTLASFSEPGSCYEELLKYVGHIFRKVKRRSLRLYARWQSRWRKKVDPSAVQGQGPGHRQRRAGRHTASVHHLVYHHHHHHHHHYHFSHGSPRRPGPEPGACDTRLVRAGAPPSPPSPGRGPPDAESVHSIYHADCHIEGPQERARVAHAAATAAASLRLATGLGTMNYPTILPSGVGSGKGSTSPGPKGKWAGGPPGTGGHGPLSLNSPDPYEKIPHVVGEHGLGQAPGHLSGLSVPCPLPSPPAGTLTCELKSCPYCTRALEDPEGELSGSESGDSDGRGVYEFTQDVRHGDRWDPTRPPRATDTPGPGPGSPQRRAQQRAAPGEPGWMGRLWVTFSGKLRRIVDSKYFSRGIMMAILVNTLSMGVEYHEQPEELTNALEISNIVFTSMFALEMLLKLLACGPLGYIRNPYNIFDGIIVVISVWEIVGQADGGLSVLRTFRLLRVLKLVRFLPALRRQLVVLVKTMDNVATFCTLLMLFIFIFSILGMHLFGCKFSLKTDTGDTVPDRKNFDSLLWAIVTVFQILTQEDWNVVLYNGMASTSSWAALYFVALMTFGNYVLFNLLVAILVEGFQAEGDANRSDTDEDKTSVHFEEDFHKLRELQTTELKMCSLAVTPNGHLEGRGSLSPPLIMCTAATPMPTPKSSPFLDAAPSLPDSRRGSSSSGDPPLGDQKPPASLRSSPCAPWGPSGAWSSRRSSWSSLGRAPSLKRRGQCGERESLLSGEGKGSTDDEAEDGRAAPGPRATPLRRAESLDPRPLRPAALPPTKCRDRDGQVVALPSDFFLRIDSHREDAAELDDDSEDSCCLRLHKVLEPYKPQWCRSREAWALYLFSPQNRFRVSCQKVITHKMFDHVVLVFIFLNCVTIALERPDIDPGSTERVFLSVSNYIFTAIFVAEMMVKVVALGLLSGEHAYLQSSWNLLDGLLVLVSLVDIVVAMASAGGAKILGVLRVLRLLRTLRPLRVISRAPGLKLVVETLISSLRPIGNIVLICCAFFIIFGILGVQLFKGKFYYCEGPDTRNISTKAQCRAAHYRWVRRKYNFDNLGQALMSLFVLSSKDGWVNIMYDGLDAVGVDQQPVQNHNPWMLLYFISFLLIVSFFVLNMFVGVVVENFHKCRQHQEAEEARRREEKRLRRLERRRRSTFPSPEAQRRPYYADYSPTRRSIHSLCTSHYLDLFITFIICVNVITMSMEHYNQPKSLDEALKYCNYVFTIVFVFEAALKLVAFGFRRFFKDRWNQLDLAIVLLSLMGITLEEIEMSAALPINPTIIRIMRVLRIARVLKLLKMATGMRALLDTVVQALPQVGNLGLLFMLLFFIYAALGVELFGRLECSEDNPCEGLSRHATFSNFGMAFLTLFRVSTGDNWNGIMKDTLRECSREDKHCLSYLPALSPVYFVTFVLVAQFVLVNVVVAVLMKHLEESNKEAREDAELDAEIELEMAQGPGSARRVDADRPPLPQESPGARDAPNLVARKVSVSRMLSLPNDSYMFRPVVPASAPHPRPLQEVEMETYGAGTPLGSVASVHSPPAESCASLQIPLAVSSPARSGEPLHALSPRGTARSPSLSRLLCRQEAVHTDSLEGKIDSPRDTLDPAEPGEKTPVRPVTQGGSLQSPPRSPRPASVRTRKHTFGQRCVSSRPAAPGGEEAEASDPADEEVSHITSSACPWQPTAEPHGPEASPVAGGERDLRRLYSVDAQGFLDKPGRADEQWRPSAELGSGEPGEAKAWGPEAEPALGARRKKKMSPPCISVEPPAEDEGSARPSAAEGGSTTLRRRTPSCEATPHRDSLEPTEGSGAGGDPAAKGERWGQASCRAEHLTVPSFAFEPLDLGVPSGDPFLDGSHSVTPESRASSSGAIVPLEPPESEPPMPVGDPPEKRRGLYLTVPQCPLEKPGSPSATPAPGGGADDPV
# Mucolipin-3 = target: T5, Mucolipin-3 (Homo sapiens, UniProt Q8TDD5); test: Dose response cell-based high-throughput screening assay for agonists of the transient receptor potential channel ML3 (TRPML3). [Related pubchem assays: 1526, 1424, 1448 ]; format: functional
# T5 sequence (Q8TDD5 whole entry): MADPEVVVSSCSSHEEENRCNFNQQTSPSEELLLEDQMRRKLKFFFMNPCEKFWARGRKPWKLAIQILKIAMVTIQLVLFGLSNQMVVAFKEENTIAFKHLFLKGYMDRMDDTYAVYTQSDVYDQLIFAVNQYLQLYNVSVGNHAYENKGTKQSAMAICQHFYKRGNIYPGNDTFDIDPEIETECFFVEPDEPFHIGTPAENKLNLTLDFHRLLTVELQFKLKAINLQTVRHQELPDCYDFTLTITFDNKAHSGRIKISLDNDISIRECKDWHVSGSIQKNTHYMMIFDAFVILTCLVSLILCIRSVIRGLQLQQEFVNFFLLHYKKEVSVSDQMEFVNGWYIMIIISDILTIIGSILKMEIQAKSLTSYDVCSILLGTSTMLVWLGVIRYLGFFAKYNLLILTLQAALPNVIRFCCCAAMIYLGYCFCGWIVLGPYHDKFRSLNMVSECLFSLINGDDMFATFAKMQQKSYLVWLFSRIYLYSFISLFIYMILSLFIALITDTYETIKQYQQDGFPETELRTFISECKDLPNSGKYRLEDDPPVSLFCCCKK
# [23] = microbe, parasite or virus in culture; format: functional; settings: Mycobacterium tuberculosis
# Ion channel NompC = Ion channel NompC (Danio rerio, UniProt Q7T1G6); test: Fluorescence counterscreen assay for TRPML3 agonists: dose response cell-based high-throughput screening assay to identify agonists of the transient receptor potential channel N1 (TRPN1). [Related pubchem assays: 1526, 1424, 1448 ]; format: functional
# [24] = target: T2, Heat shock factor protein 1; test: enhancement of HSF1-driven luciferase signal – cell-based, NIH3T3, luminescence, dose retest, confirmation (AID 435004); format: functional;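 note: stress induced by proteasome inhibitor MG132 added 30 min after compound; luciferase reporter driven by HSF1 response element in NIH3T3 cells; actives raise luminescence as potentiators of the MG132 stress response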
# [25] = target: Type-1 angiotensin II receptor (Homo sapiens, UniProt P30556); test: agonist activity at AGTR1 – cell-based, uHTS hits, selectivity assay for APJ receptor agonist project, dose response (AID 488865); format: functional;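 note: beta-arrestin recruitment to AT1 measured by enzyme fragment complementation luminescence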
# Chain of Type-1 angiotensin II receptor (P30556 whole entry, the tested form may be a part): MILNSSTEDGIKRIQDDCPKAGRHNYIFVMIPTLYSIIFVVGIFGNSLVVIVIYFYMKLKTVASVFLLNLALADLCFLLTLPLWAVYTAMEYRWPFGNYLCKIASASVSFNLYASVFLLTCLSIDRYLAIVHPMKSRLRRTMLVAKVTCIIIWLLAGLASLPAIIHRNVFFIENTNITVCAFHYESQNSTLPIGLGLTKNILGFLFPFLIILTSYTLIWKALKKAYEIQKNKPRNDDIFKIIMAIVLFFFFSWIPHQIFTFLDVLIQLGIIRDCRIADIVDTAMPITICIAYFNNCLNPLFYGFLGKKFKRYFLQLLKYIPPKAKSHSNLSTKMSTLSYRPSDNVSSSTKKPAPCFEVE
# [26] = target: Heat shock protein HSP 90-alpha (Homo sapiens, UniProt P07900); format: functional, organism-based
# [27] = target: T6, High affinity choline transporter 1 (Homo sapiens, UniProt Q9GZV3); test: human choline transporter blockers, potency – cell-based, 5-point CRC, membrane potential dye, dose response (AID 504840); format: functional
# T6 sequence (Q9GZV3 whole entry): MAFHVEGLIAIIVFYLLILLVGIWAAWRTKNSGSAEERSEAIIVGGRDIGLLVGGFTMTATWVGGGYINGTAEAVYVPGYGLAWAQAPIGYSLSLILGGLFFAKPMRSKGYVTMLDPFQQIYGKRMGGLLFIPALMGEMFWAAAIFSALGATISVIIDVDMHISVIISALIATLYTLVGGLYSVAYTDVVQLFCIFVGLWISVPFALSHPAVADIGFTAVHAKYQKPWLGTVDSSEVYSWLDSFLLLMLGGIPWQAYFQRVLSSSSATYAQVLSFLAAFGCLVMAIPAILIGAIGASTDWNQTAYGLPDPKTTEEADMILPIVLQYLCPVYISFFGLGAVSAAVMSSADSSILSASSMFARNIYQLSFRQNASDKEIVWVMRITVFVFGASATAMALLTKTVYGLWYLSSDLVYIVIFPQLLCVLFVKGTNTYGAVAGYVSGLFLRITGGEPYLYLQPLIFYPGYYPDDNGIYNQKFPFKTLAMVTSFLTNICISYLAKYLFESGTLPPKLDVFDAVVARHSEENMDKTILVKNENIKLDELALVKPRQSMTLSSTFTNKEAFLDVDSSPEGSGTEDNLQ
# INS1 = test: INS-1E survival protection against cytokine death – cell-based, luminescence, retest, dose response (AID 449756); format: functional; settings: Rattus norvegicus;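 note: cell death triggered by IL-1 beta plus TNF-alpha plus IFN-gamma mixture; protective hits raise ATP signal compared with cytokine alone wells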
# [28] = Fluorescence-based cell-based high throughput dose response assay for inhibitors of the interaction of nucleotide-binding oligomerization domain containing 2 (NOD2) and the receptor-interacting serine-threonine kinase 2 (RIPK2).; format: functional; settings: Homo sapiens
# Beta Lactamase = Beta Lactamase (Pseudomonas aeruginosa, UniProt Q932Y6); test: BLA reporter interference, concentration series – BLA reporter cells, FRET fluorescence, artefact control for NOD2-RIPK2 interaction inhibitor project, dose response (AID 651552); format: functional, cell-based
# Chain of Beta Lactamase (Q932Y6 whole entry): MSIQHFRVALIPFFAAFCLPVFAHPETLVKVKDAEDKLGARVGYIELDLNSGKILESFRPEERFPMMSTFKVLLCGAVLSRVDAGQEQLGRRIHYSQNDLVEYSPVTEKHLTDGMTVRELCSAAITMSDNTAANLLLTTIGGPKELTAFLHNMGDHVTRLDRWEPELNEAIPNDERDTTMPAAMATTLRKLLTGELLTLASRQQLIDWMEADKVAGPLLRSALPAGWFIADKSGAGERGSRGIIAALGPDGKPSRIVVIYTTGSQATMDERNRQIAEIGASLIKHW
# Paired box protein Pax-8 = Paired box protein Pax-8 (Homo sapiens, UniProt Q06710); test: PAX8 transcriptional activity inhibition in RMG-I – RMG-I cells, luciferase, cherry-pick, dose response (AID 687027); format: functional, cell-based;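 note: luciferase reporter driven by Pax8 target thyroperoxidase promoter measured by SteadyGlo luminescence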
# Chain of Paired box protein Pax-8 (Q06710 whole entry): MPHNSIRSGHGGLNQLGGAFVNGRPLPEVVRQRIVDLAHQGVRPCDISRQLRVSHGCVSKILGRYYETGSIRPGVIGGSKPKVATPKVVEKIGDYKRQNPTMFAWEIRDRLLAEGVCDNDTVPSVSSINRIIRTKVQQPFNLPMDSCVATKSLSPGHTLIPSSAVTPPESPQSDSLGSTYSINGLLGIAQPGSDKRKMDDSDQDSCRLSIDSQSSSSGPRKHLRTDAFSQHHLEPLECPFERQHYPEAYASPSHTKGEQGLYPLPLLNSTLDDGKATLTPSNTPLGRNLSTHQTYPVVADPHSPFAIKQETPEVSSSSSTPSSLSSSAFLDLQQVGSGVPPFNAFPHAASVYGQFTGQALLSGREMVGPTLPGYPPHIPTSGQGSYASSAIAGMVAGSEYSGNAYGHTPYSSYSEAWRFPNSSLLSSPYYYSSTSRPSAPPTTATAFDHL
# T1 sequence (Q01196 whole entry, the tested form may be a part): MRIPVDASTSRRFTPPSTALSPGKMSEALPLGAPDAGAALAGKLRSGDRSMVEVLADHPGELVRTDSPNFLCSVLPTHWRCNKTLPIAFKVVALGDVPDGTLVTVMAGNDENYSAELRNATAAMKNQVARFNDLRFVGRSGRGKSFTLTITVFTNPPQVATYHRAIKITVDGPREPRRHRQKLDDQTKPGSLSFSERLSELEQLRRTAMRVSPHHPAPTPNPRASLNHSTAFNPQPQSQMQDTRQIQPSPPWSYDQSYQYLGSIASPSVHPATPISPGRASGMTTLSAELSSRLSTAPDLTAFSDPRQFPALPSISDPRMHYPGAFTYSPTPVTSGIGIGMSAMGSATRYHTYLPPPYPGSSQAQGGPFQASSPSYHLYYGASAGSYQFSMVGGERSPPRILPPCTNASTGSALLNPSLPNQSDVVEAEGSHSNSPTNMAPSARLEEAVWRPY
# T1 sequence (Q13951 whole entry, the tested form may be a part): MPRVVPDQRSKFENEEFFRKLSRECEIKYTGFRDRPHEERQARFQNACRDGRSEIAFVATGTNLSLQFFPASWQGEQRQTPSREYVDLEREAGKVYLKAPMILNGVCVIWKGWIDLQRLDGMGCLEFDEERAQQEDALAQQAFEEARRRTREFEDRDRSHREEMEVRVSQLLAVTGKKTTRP
# Chain of DNA damage-inducible transcript 3 protein (P35639 whole entry, the tested form may be a part): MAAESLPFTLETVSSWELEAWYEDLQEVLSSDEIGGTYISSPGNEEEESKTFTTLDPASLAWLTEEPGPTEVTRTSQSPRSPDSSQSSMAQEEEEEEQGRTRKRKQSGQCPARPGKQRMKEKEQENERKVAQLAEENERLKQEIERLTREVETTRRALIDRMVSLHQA
smiles,measurement,setting,value
O=C(c1ccc(Cl)cc1)N1CCC(O)(CSc2ccc(Cl)cc2Cl)CC1,Absolute IC50 (CHOP),[1],10 µM
Nc1c(C(=O)NCCN2CCOCC2)c2nc3ccccc3nc2n1Cc1ccco1,IC50,[2],1.19 µM (active)
same,IC50,[3],> 100 µM (inactive)
same,IC50,[4],6.49 µM (not active)
CCCCCCCCCCCC(=O)N1CC(=O)NC(=O)C1,IC50,Coagulation factor XII,> 50 µM (inactive)
CCN(CC)CCCN(C(=O)c1ccco1)c1nc(-c2ccc(C)cc2)cs1,EC50,[5],> 195 µM (not active)
same,CC50,[6],38.2 µM (active)
same,CC50,[7],> 20 µM (active)
same,CC50,[8],> 20 µM (active)
same,IC50,cells,44.2 µM (active)
same,AC50,[9],20.7 µM (active)
Cc1cc(C)cc(Nc2nc3ccc(C)cc3n3cnnc23)c1,EC50,[10],20.5 µM (active)
same,EC50,[11],20.5 µM (inconclusive)
same,EC50,[12],> 120 µM (not active)
same,EC50,[13],16.6 µM (inconclusive)
same,EC50,[14],> 195 µM (inconclusive)
same,EC50,[15],> 195 µM (inactive)
same,EC50,[16],> 120 µM (not active)
same,EC50,[17],2.82 µM (active)
same,EC50,[18],16.6 µM (active)
CCOc1ccc2nc(N3C(=O)C(O)=C(C(=O)c4ccco4)C3c3ccco3)sc2c1 (stereo not given),IC50,[19],8.2 µM (inactive)
same,IC50,[20],3 µM (active)
same,EC50,[21],1.2 µM (active)
O=C(COc1ccc(F)c(Cl)c1)N[C@@H]1CCCN(Cc2ccccc2)C1,EC50,[22],10 µM (active)
CC1=CC(=O)C(C(C)C)=C/C1=N/OS(=O)(=O)c1ccccc1,EC50,Mucolipin-3,> 29.9 µM (not active)
same,CC50,[23],9.69 µM (active)
same,EC50,Ion channel NompC,> 29.9 µM (not active)
same,EC50,[24],4.19 µM (active)
same,EC50,[25],> 100 µM (inactive)
same,AC50,[26],3.61 µM (active)
same,IC50,[27],12 µM (active)
same,AC50,INS1,1.06 µM (active)
same,IC50,[28],7.38 µM (active)
same,IC50,Beta Lactamase,49.8 µM (inactive)
same,AC50,Paired box protein Pax-8,6.97 µM (active)
